Measurements from US12421276B2 (priority 2016, dated 2025).
“And” between values parts separate entries of the source, which are not always exact repeats. Identical values can stand only once. Like-named read-outs stand apart in the source and are kept apart here. Each block holds one compound with its values, some of them ahead of it.

Tests used:
[1] = format: in vivo, rat
Experimental: • 1. Eight (8) male JVC SD rats (purchased from Charles River Lab) were monitored daily for body condition and health status during the 3-5 days acclimation period. The rats were randomly assigned into […] (n=4). • 2. […] The dosed rats were individually placed into a metabolic cage, and have access to food and water at all times. The urine from each rat was collected daily from the metabolic cages, and kept in dry ice. • 4. At predose (0 min), 5 min, 15 min, 30 min, 1 hr, 2 hr, 8 hr, and 24 hr post dosing, approximately 200 ul blood samples were collected from each rat and transferred to EDTA tubes. • 5. The blood samples in EDTA vials were centrifuged at 4° C. and 6,000 rpm for 10 minutes to generate ˜100 μl of plasma per sample. Blood samples were processed as quickly as possible and remain no longer than 2 min at room temperature and no longer than 15 minutes at 4° C. prior to processing. • 6. All samples were transferred for bioanalytic assay using LCMS

[2] = Metabolic stability in simulated intestinal fluid (SIF), pH 6.8, with or without pancreatin; format: in vitro ADME; conditions: 5 μM, 37° C.
Experimental: (§1) Metabolic Stability in SIF and SGF (Simulated Intestinal and Gastric Fluid)
Buffer 3=SIF without enzyme
Buffer 4=SIF with 1% pancreatin
(§2) SIF was prepared freshly with 8.7 mM NaOH, 28.65 mM NaH2PO4, 105.85 mM NaCl, with a final pH of 6.8. SGF was prepared freshly with 34.2 mM NaCl, with a final pH of 1.2. Enzymes such as pepsin or pancreatin were added to some buffers. Human and rat plasma (K2 EDTA) were purchased from BioreclamationIVT.
(§3) Compounds were dissolved as 1.5 mM DMSO stocks. Compounds were transferred to SIF, SGF, or plasma at 5 μM on a 96-well deep well plate. After mixing, samples were transferred to several 96-well plates (25 μL/well), and incubated at 37° C. The extent of metabolism was calculated as the disappearance of the test compound, compared to the 0-min control reaction incubations. Candesartan Cilexetil and omeprazole were included as positive controls for SIF and SGF, respectively, to verify assay performance.
(§4) At each of the time points, 150 μL of quench solution (100% acetonitrile with 0.1% formic acid) with internal standard (bucetin for positive ESI mode and warfarin for negative ESI mode) was transferred to each well. Plates were sealed and centrifuged at 4° C. for 15 minutes at 4000 rpm. The supernatant was transferred to fresh plates for LC/MS/MS analysis.
(§5) Elution conditions are detailed in the table below.
(§6) Initial rates of the clearance of test compounds were calculated using linear regression of semi-log plot of % remaining of compounds versus time. The elimination rate constant (equals to −slope) of the linear regression was then used to determine t½ values.

[3] = system: Caco-2 cells; test: Caco-2 permeability study with or without P-gp inhibitor GF120918; conditions: for Abs. Quotient: (Papp A-B with inhibitor − without inhibitor)/Papp A-B with inhibitor; for Caco-2 Cells Permeability Recovery Rate: 1 hr, pH 7.4
[4] = Metabolic stability in simulated gastric fluid (SGF), pH 1.2, with or without pepsin; format: in vitro ADME; conditions: 5 μM, 37° C.
Experimental: as §1
Buffer 1=SGF without enzyme
Buffer 2=SGF with 0.32% pepsin
as §2, §3, §4, §5, §6

[5] = Plasma stability study, rat plasma; format: in vitro ADME; conditions: rat, plasma
Experimental: (§7) Human and rat plasma (K2 EDTA) were obtained from Bioreclamation.
(§8) Compounds were dissolved as 0.3 mM DMSO stocks. Compounds were transferred to the plasma at 1 μM on a 96-well deep well plate. After mixing, samples were transferred to several 96-well plates (25 μL/well), and incubated at 37° C. The extent of metabolism was calculated as the disappearance of the test compound, compared to the 0-min control reaction incubations. Propantheline was included as a positive control to verify assay performance.
as §4, with “(50% acetonitrile, 50% methanol” for “(100% acetonitrile”, “0.05%” for “0.1%”
as §5, §6

[6] = Plasma stability study, human plasma; format: in vitro ADME; conditions: human, plasma
Experimental: as §7, §8
as §4, with “(50% acetonitrile, 50% methanol” for “(100% acetonitrile”, “0.05%” for “0.1%”
as §5, §6

[7] = Rat, PO, 10 mg/kg equiv., n = 4, analyte: Parent (BASE STRUCTURE)
[8] = Rat, PO, 10 mg/kg equiv., n = 4, analyte: Prodrug
[9] = rat, dosed as prodrug, 10 mg/kg equivalent of Base Structure, analyte Parent (Base Structure), Average
[10] = rat, dosed as prodrug, 10 mg/kg equivalent of Base Structure, analyte Parent (Base Structure), Combined (average ± std. dev.)
[11] = rat, dosed as prodrug, 10 mg/kg equivalent of Base Structure, analyte Parent (Base Structure), individual animals, 10 mg/kg
[12] = rat, dosed as prodrug, 10 mg/kg equivalent of Base Structure, analyte Prodrug, Average
[13] = rat, dosed as prodrug, 10 mg/kg equivalent of Base Structure, analyte Prodrug, Combined (average ± std. dev.)
[14] = rat, dosed as prodrug, 10 mg/kg equivalent of Base Structure, analyte Prodrug, individual animals, 10 mg/kg
[15] = +GF120918 (10 μM), 10 μM compound

SMILES: CCCCCC(=O)NC(Cc1ccc(OP(=O)(OCCN(C)C)OCCN(C)C)cc1)C(=O)NC(C(=O)NCCCCCC(N)=O)C(C)CC (stereo not drawn) [Compound A18]
AUC0-24 [1, 7]: 4.1 ± 3.8 ng·h/mL
AUC0-inf (ng · h/mL) [1, 7]: 6.8 ± 4^ ng · h/mL
Cmax [1, 7]: 3.1 ± 2.5 ng/mL
Tmax [1, 7]: 0.2 ± 0.1 h
half-life [1, 7]: 3.5 ± 2.6 h
AUC0-24 [1, 8]: 4.9 ± 2.6 ng·h/mL
Cmax [1, 8]: 3.8 ± 0.1 ng/mL
Tmax [1, 8]: 1.5 ± 0.7 h
AUC 0-inf_obs [1, 9]: 6.838 ng·h/mL
AUC 0-t [1, 9]: 4.14 ng·h/mL
AUMC 0-inf_obs [1, 9]: 46.7 ng/ml * h^2
Cl/F_obs [1, 9]: 1.944 (mg/kg)/(ng/ml)/h
Cmax [1, 9]: 3.14 ng/mL
Lambda_z [1, 9]: 0.523 h⁻¹
MRT 0-inf_obs [1, 9]: 5.185 h
Tlag [1, 9]: 0 h
Tmax [1, 9]: 0.165 h
Vz/F_obs [1, 9]: 6.707 (mg/kg)/(ng/ml)
t1/2 [1, 9]: 3.49 h
AUC 0-inf_obs [1, 10]: 6.8 ± 4 ng·h/mL
AUC 0-t [1, 10]: 4.1 ± 3.8 ng·h/mL
AUMC 0-inf_obs [1, 10]: 46.7 ± 47.2 ng/ml * h^2
Cl/F_obs [1, 10]: 1.9 ± 1.1 (mg/kg)/(ng/ml)/h
Cmax [1, 10]: 3.1 ± 2.5 ng/mL
Lambda_z [1, 10]: 0.5 ± 0.7 h⁻¹
MRT 0-inf_obs [1, 10]: 5.2 ± 3.9 h
Tlag [1, 10]: 0 ± 0 h
Tmax [1, 10]: 0.2 ± 0.1 h
Vz/F_obs [1, 10]: 6.7 ± 3.2 (mg/kg)/(ng/ml)
t1/2 [1, 10]: 3.5 ± 2.6 h
Tlag ([1]; rat, dosed as prodrug, 10 mg/kg equivalent of Base Structure, analyte Parent (Base Structure), individual animals): 0 h
AUC 0-inf_obs [1, 11]: 3.49 ng·h/mL and 3.404 ng·h/mL and 9.232 ng·h/mL and 11.23 ng·h/mL
AUC 0-t [1, 11]: 1.664 ng·h/mL and 3.218 ng·h/mL and 1.903 ng·h/mL and 9.777 ng·h/mL
AUMC 0-inf_obs [1, 11]: 10.68 ng/ml * h^2 and 2.586 ng/ml * h^2 and 76.05 ng/ml * h^2 and 97.48 ng/ml * h^2
Cl/F_obs [1, 11]: 2.866 (mg/kg)/(ng/ml)/h and 2.938 (mg/kg)/(ng/ml)/h and 1.083 (mg/kg)/(ng/ml)/h and 0.8908 (mg/kg)/(ng/ml)/h
Cmax [1, 11]: 1.3 ng/mL and 3.37 ng/mL and 1.27 ng/mL and 6.62 ng/mL
Lambda_z [1, 11]: 0.3303 h⁻¹ and 1.518 h⁻¹ and 0.1231 h⁻¹ and 0.1201 h⁻¹
MRT 0-inf_obs [1, 11]: 3.06 h and 0.7598 h and 8.238 h and 8.683 h
Tmax [1, 11]: 0.25 h (2×) and 0.08 h (2×)
Vz/F_obs [1, 11]: 8.676 (mg/kg)/(ng/ml) and 1.935 (mg/kg)/(ng/ml) and 8.802 (mg/kg)/(ng/ml) and 7.417 (mg/kg)/(ng/ml)
t1/2 [1, 11]: 2.099 h and 0.4565 h and 5.632 h and 5.771 h
AUC 0-t [1, 12]: 4.949 ng·h/mL
Cmax [1, 12]: 3.76 ng/mL
Tlag [1, 12]: 0 h
Tmax [1, 12]: 1.5 h
AUC 0-t [1, 13]: 4.9 ± 2.6 ng·h/mL
Cmax [1, 13]: 3.8 ± 0.1 ng/mL
Tlag [1, 13]: 0 ± 0 h
Tmax [1, 13]: 1.5 ± 0.7 h
Tlag ([1]; rat, dosed as prodrug, 10 mg/kg equivalent of Base Structure, analyte Prodrug, individual animals): 0 h
AUC 0-t [1, 14]: 6.8 ng·h/mL and 3.099 ng·h/mL
Cmax [1, 14]: 3.84 ng/mL and 3.68 ng/mL
Tmax [1, 14]: 2 h and 1 h
SIF Stability (pH 6.8) Half-Life (min) ([2]; +Pancreatin (1%)): 39.4 min
SIF Stability (pH 6.8) 0 min ([2]; +Pancreatin (1%)): 100%
SIF Stability (pH 6.8) 60 min ([2]; +Pancreatin (1%)): 40%
SIF Stability (pH 6.8) 120 min ([2]; +Pancreatin (1%)): 12%
SIF Stability (pH 6.8) 240 min ([2]; +Pancreatin (1%)): 25%
SIF Stability (pH 6.8) Half-Life (min) ([2]; −Pancreatin): 30.2 min
SIF Stability (pH 6.8) 0 min ([2]; −Pancreatin): 100%
SIF Stability (pH 6.8) 60 min ([2]; −Pancreatin): 25%
SIF Stability (pH 6.8) 120 min ([2]; −Pancreatin): 17%
SIF Stability (pH 6.8) 240 min ([2]; −Pancreatin): 8%
Abs. Quotient [3]: 0.54
Caco-2 Cells Permeability Recovery Rate [3, 15]: 90%
Caco-2 Cells Permeability Recovery Rate ([3]; −GF120918, 10 μM compound): 48%
SGF Stability (pH 1.2) Half-Life (min) ([4]; +Pepsin (0.32%)): 46.4 min
SGF Stability (pH 1.2) 0 min ([4]; +Pepsin (0.32%)): 100%
SGF Stability (pH 1.2) 60 min ([4]; +Pepsin (0.32%)): 52%
SGF Stability (pH 1.2) 120 min ([4]; +Pepsin (0.32%)): 17%
SGF Stability (pH 1.2) 240 min ([4]; +Pepsin (0.32%)): 18%
SGF Stability (pH 1.2) Half-Life (min) ([4]; −Pepsin): 42.6 min
SGF Stability (pH 1.2) 0 min ([4]; −Pepsin): 100%
SGF Stability (pH 1.2) 60 min ([4]; −Pepsin): 51%
SGF Stability (pH 1.2) 120 min ([4]; −Pepsin): 14%
SGF Stability (pH 1.2) 240 min ([4]; −Pepsin): 15%

Plasma Stability Half-Life [5]: 8.7 min
Plasma Stability Half-Life [6]: 1.46 h
Abs. Quotient [3]: 0.78
Caco-2 Cells Permeability Recovery Rate [3, 15]: 104%
Caco-2 Cells Permeability Recovery Rate ([3]; −GF120918, 10 μM compound): 107%
SMILES: CCCCCC(=O)NC(Cc1ccc(OC(=O)CN2CCN(C)CC2)cc1)C(=O)NC(C(=O)NCCCCCC(N)=O)C(C)CC (stereo not drawn) [Compound A22]
